For the assay, the system named is P493-6 (myc "on") cells. The assay can be described thus: Cell Proliferation Assay. It counts as cell-based. The method, then:
P493-6 (myc “on”) cells were maintained in growth media (RPMI-1640, 10% FBS, 2 mM glutamine, 100 units/ml Penicillin and 100 μg/ml streptomycin) at 37° C. with 5% CO2. For compound assay, P493-6 cells were plated in 96-well V-bottom plates on the day of compound addition in 50 μl of growth media at a cell density of 200,000 cells/ml (10,000 cells/well). Compounds were serially diluted in 100% DMSO at 200-times the final concentration. Compounds were diluted 100-fold into growth media and then 50 μl of this mixture was added to cell plates making the final concentration of DMSO 0.5%. Cells were incubated with compound for 72 hrs at 37° C. with 5% CO2 and analyzed for antiproliferative effects either by Cell Titer Glo (Promega) or FACS analysis using the Viacount (Millipore) kit on the Guava instrument.

Setting [1] is: P493-6, 72 h, read-out: Cell prolif P493 72 h IC50, P493 cells, 72 h.
[2] abbreviates: P493-6, read-out: Cell prolif P493 72 h IC50, P493 cells, 72 h.
Where [3] appears, read: P493-6, 72 h, read-out: Cell prolif P493 72 h IC50, P493-6 cells, 72 h.

Like-named read-outs stand apart in the source and are kept apart here. A value given as a limit tells only on which side of the number the result lay.

For the compound `O=C(Nc1nnc(CCCCc2nnc(NC(=O)[C@@H](O)c3ccccc3Cl)s2)s1)[C@@H](O)c1ccccc1Cl` [Compound 210], under setting [1], the IC50 is 0.42 µM.

Turning to `O=C(Cc1ccccc1)Nc1nnc(CCCCc2nnc(NC(=O)Oc3ccccc3)s2)s1` [Compound 371], under setting [2], the 50% inhibitory concentration (IC50) was found to be 5.2 µM.

Turning to `Cc1cccc(CNC(=O)Nc2nnc(CCCCc3nnc(NC(=O)Cc4ccccc4)s3)s2)c1` [Compound 417], the concentration for half-maximal inhibition (IC50) under setting [3] is 0.32 µM.

Take `CC(C)(C)OC(=O)NCc1cccc(CC(=O)Nc2ccc(CCCCc3nnc(NC(=O)Cc4cccc(CNC(=O)OC(C)(C)C)c4)s3)nn2)c1` [Compound 571]: under setting [3], the IC50 was found to be 0.01 µM.

`CC(=O)Nc1nnc(CCSCCc2nnc(NC(C)=O)s2)s1` [Compound 13]: the half-inhibitory concentration (IC50) under setting [2] is 12 µM.

On to `CC(=O)OCC(=O)Nc1nnc(CCSCCc2nnc(NC(=O)Cc3ccccc3)s2)s1` [Compound 26], for which, under setting [1], the IC50 was found to be 0.7 µM.

With `COC(=O)C(CC(=O)Nc1nnc(CCCCc2nnc(NC(=O)CC(C(=O)O)c3ccccc3)s2)s1)c1ccccc1` (stereo not drawn) [Compound 178], the IC50 under setting [1] was above 50 µM.

On to `CC(=O)NCCc1cccc(CC(=O)Nc2nnc(CCCCc3ccc(NC(=O)Cc4ccccc4)nn3)s2)c1` [Compound 454], for which the IC50 under setting [3] was 0.13 µM.

Regarding `COc1ccc(C(=O)Nc2nnc(CCSCCc3nnc(NC(=O)c4ccc(OC)cc4)s3)s2)cc1` [Compound 3], the IC50 under setting [2] was above 50 µM.

With `CC(C)(C)OC(=O)Nc1cccc(CC(=O)Nc2nnc(CCCCc3nnc(NC(=O)Cc4cccc(NC(=O)OC(C)(C)C)c4)s3)s2)c1` [Compound 327], the IC50 under setting [1] was found to be 0.15 µM.

In the case of `CC(C)COC(=O)Nc1nnc(CCCCc2nnc(NC(=O)Cc3ccccc3)s2)s1` [Compound 370], the IC50 under setting [1] is 0.7 µM.

On to `CC1(C)OCC(C(=O)Nc2nnc(CCCCc3nnc(NC(=O)Cc4ccccc4)s3)s2)(c2ccccc2)O1` (stereo not drawn) [Compound 279], for which the IC50 under setting [1] was 7 µM.

With `CC[C@](O)(C(=O)Nc1nnc(CCCCc2nnc(NC(=O)[C@@](O)(CC)c3ccccc3)s2)s1)c1ccccc1` [Compound 143], the IC50 under setting [1] stood at 2.2 µM.

As to `COCC(C(=O)Nc1nnc(CCCCc2nnc(NC(=O)C(COC)c3ccccc3)s2)s1)c1ccccc1` (stereo not drawn) [Compound 165], the IC50 under setting [1] is 33 µM.

Consider `O=C(Nc1nnc(CCCCc2nnc(NC(=O)C(CO)c3cccs3)s2)s1)C(CO)c1cccs1` (stereo not drawn) [Compound 190], for which the IC50 under setting [1] is 0.49 µM.

For `O=C(Nc1nnc(CCSCCc2nnc(NC(=O)[C@@H]3CCCN3C(=O)C(F)(F)F)s2)s1)[C@@H]1CCCN1C(=O)C(F)(F)F` [Compound 22], the IC50 under setting [1] is above 50 µM.

As for `O=C(OCC(C(=O)Nc1nnc(CCCCc2nnc(NC(=O)C(COC(=O)C3CCNCC3)c3ccccc3)s2)s1)c1ccccc1)C1CCNCC1` (stereo not drawn) [Compound 302], under setting [1], the half-inhibitory concentration (IC50) came to 0.87 µM.

`CC(=O)N1CCN(Cc2cc(CC(=O)Nc3nnc(CCCCc4ccc(NC(=O)Cc5ccccc5)nn4)s3)ccc2F)CC1` [Compound 528]: under setting [3], the IC50 amounted to 0.044 µM.

Turning to `CCOC(=O)NCc1cc(C(C)C(=O)Nc2nnc(CCCCc3ccc(NC(=O)Cc4ccccc4)nn3)s2)ccc1F` (stereo not drawn) [Compound 574], under setting [3], the IC50 turned out to be 0.028 µM.

Take `[2H]C([2H])(CCc1nnc(NC(=O)Cc2ccccn2)s1)C([2H])([2H])c1ccc(NC(=O)Cc2cccc(OC(F)(F)F)c2)nn1` [Compound 727]: under “read-out: Cell prolif P493 72 h IC50, 72 h”, the IC50 is 0.012 µM.

`COc1c(F)ccc(CC(=O)Nc2nnc(CCCCc3nnc(NC(=O)Cc4ccccc4)s3)s2)c1F` [Compound 344]: the IC50 under setting [1] was determined as 0.088 µM.

`Cc1noc(Cc2cccc(CC(=O)Nc3ccc(CCCCc4nnc(NC(=O)Cc5ccccc5)s4)nn3)c2)n1` [Compound 648, 2-(3-((3-methyl-1,2,4-oxadiazol-5-yl)methyl)phenyl)-N-(6-(4-(5-(2-phenylacetamido)-1,3,4-thiadiazol-2-yl)butyl)pyridazin-3-yl)acetamide]: the IC50 under setting [3] came to 0.011 µM.

For `N[C@H](C(=O)Nc1nnc(CCCCc2nnc(NC(=O)[C@@H](N)c3ccccc3)s2)s1)c1ccccc1` [Compound 187], the IC50 under setting [1] was 21 µM.

In the case of `O=C(Cc1ccccc1)Nc1nnc(CCCCc2nnc(NC(=O)C(O)c3cccc(Cl)c3)s2)s1` (stereo not drawn) [Compound 527], the IC50 under setting [1] is 0.098 µM.
